Measurements reported in patent publication US8372421B2, “Inhibition of mitogen-activated protein kinases in cardiovascular disease” (New York University, priority 2004, dated 2013).

Tests used:
[1] = test system: balloon-injured carotid arteries; settings: delivered pre- and post-operatively; effect relatively modest; cited from earlier work
[2] = test system: ERK-1/2; settings: excised EJV immersed 20 minutes in 80 μmmoles/L UO126 before grafting; 3 hours post-grafting; relative to DMSO-pretreated EJVs
Description: (§1) Carotid artery bypass using reversed autologous external jugular vein (EJV) was performed on 29 purpose-bred mongrel dogs. Following skin incision, the EJV was exposed with a “no-touch” technique, and the side branches were clipped and divided. The dogs received heparin systemically (100 U/kg) and the ipsilateral common carotid artery was dissected free of the surrounding tissue. The EJV was ligated and excised. The lumen of the EJV was flushed with plasmalyte solution without distending the vein. A segment of the excised vein was removed and labeled (“control 1”). The EJV was reversed and grafted to the common carotid artery in an end-to-side fashion with 7-0 polypropylene suture, and the carotid artery was ligated and divided. See Saunders et al., J Thorac Cardiovasc Surg. 2004; 127:1276-1284.
(§2) Each EJV was grafted to a carotid artery. Autologous femoral vein was excised but not treated or grafted.

[3] = test system: PCNA expression; settings: EJV pretreated with 80 μM UO126; 24 hours and 4 days post-grafting; relative to DMSO-pretreated EJVs
Description: as §1, §2

[4] = test system: medial cell apoptosis; settings: EJV pretreated with 80 μM UO126; 1 day and 4 days post-anastomosis
Description: as §1, §2

[5] = test system: C reactive protein (CRP); settings: graft immersed in UO126 (80 μM/L) prior to grafting; 24 hours post-operatively
Description: as §1
(§3) Inflammation is a key component of a vessel's response to injury.
(§4) This experiment, which also used the canine model described in Example 1, investigated the levels of CRP and MPO cells in arterialized vein grafts immersed in a solution of UO126 (80 μM/L) (solubilized with DMSO and diluted in PBS) prior to grafting (i.e., pretreated grafts), arterialized vein grafts that were not pretreated, and contralateral ungrafted, un-pretreated external jugular veins.

[6] = test system: myeloperoxidase-positive (MPO) cells; settings: graft immersed in UO126 (80 μM/L) prior to grafting; 24 hours and 4 days post-operatively
Description: as §1, §3, §4

[7] = test system: arterialized vein graft wall; settings: EJV immersed 20 minutes in 80 μmoles/L UO126 before grafting; AVG harvested at 28 days; 1% cholesterol chow; DMSO controls 358.2+/−190.3; p=0.012
Description: The experimental procedure followed in the canine model described in Examples 1, 2, and 3 was applied to white New Zealand rabbits fed a 1% cholesterol chow. Prior to grafting, the excised autologous EJVs were fully immersed for 20 minutes at room temperature in about 5 ml of a solution containing 80 μmoles/L of UO126 (solubilized with DMSO and diluted in PBS) or vehicle (DMSO, 0.8%) alone in PBS. Each EJV was grafted to a carotid artery. Autologous femoral vein was excised but not treated or grafted. The veins were fixed in formaldehyde, and sections stained with hematoxylin/eosin were used for the following analysis.

[8] = test system: ERK-1/2 activation; settings: cited from earlier work

Compound | ERK activation [1] | medial cell proliferation [1] | ERK-1/2 activation (ratio of phosphorylated to total ERK-1/2) [2] | PCNA expression [3] | medial cell apoptosis (TUNEL) [4] | upregulation of CRP in arterialized vein grafts [5] | levels of MPO cells associated with arterialized vein grafts [6] | vein wall thickness (intima+media) to luminal circumference ratio (mean value+/−SD) [7] | potency as inhibitor of ERK-1/2 activation compared with PD098059 [8]
COc1cccc(-c2cc(=O)c3ccccc3o2)c1N [PD98059, 2-(2′-amino-3′-methoxyphenyl) oxanaphthalen-4-one] | inhibit | inhibit | – | – | – | – | – | – | –
N#CC(=C(N)Sc1ccccc1N)C(C#N)=C(N)Sc1ccccc1N [UO126, 1,4-diamino-2,3-dicyano-1,4-bis[2-aminophenylthio]butadiene] | – | – | significantly reduced | markedly decreased | marked and sustained (up to 4 days) induction | does not affect | significantly downregulated | 288.8+/−109.5 | more potent
